Test results from article PMC10180488, “Novel Derivatives of Eugenol as a New Class of PPARγ Agonists in Treating Inflammation: Design, Synthesis, SAR Analysis and In Vitro Anti-Inflammatory Activity” (Molecules, 2023).

Legend:
egg albumin = egg albumin (Gallus gallus, UniProt P01012); assay: Albumin denaturation assay; assay type: biochemical, hen; conditions: mean ± SD (n = 3), read-out: Percentage inhibition of denaturation of albumin
Description: Inflammation is accompanied by protein denaturation. Tissue protein denaturation is a well-established cause of Inflammatory illnesses. Inflammatory disorders including rheumatoid arthritis, diabetes, and cancer have been linked to the denaturation of proteins. The ability of a substance to stop proteins from becoming denaturized has a role in the prevention of inflammatory disorders. […] Denaturation of proteins is accomplished by keeping the reaction mixture in a water bath at 70 °C for […].
Minor modifications were made to Mizushima and Kobayashi’s and Sakat et al. methodologies. The reaction mixture containing 0.2 mL of egg albumin (from a fresh hen’s egg) is mixed with 2.8 mL of phosphate-buffered saline (PBS, pH 6.4) and 2 mL of synthesized compounds in varying concentrations. The mixture was then heated at 70 °C for 5 min after being incubated at 37 °C for approximately 15–20 min. After cooling, their absorbance was measured at 660 nm spectrometrically. Three duplicates of the experiment were carried out. […] Percentage inhibition = (OD control − OD sample/OD control) × 100

human PPARγ- LBD = biological target: T1, human PPARγ- LBD (Homo sapiens, UniProt P37231); assay: Lanthascreen TR-FRET PPARγ competitive binding assay; conditions: for IC50: Lanthascreen TR-FRET competitive binding; for Raw Data / Raw Data - Background: TR-FRET
T1 construct: a mixture of a human PPARγ- LBD labelled with glutathione S-transferase (GST)
T1 sequence (P37231 238-503 limits assumed): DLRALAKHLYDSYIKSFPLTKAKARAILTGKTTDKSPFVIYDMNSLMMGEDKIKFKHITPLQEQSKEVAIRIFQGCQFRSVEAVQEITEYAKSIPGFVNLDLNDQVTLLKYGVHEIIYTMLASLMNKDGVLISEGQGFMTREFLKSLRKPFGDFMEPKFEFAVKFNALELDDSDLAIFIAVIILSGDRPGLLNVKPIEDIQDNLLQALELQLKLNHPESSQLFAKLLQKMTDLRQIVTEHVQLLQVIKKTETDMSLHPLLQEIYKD
Description: Using the Lanthasreen TR-FRET assay, the synthesized compounds were first preliminary tested for the PPARγ binding affinity. […] A chemical under test displaces the tracer from PPAR-LBD, which lowers the TR-FRET ratio and decreases the FRET signal Figure 8 [33].
A multimode low-volume proxy plate reader was used to read the plates after one hour of incubation. Then, a mixture of a human PPARγ- LBD labelled with glutathione S-transferase (GST), a fluorescent small pan-PPAR ligand (FluormoneTM Pan-PPAR Green), and terbium-labeled anti-GST antibody was added.

[1] = system: human red blood cells (HRBC); assay: HRBC membrane stabilization method; conditions: for HRBC membrane stabilization (percentage protection against HRBC lysis): mean ± SD (n = 3); for IC50: Homo sapiens, Erythrocyte, read-out: IC50 Values, HRBC membrane stabilization method
Description: The principle of this procedure is to stabilize the membrane of human red blood cells by hypotonic membrane lysis. […] Lysosomal enzyme levels typically decrease as the HRBC membrane is stabilized.
The packed cells in this blood solution were separated after centrifugation at 3000 rpm [41]. The packed cells were cleaned using an isosaline solution, and then, isosaline was used to prepare a 10% v/v suspension. This HRBC suspension was employed to estimate its anti-inflammatory properties. Different concentrations of the synthesized compounds and the reference standard were each combined with 1 mL of phosphate buffer (pH 7.4), 2 mL of hyposaline, and 0.5 mL of HRBC solution. A total of 2.0 mL of distilled water was utilized as the control. The assay mixtures were all centrifuged at 3000 rpm after 30 min of incubation at 37°C. The following formula was used to determine the percentage of stabilized HRBC membranes. Percentage protection= 100 − (OD sample/OD control) × 100

Sequence of egg albumin (P01012 2-386): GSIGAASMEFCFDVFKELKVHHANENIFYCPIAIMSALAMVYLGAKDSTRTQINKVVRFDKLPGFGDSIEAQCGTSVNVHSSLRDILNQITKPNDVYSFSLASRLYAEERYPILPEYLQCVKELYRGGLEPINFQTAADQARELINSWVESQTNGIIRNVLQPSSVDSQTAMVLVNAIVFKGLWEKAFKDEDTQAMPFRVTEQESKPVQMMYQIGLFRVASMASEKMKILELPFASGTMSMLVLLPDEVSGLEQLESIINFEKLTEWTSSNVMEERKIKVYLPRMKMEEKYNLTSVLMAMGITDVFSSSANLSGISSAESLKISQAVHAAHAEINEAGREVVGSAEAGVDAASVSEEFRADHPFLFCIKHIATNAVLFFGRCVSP

What does the source list for C=CCc1ccc(OCC(=O)Nc2cccc(Cl)c2)c(OC)c1 [Compound 1e, 2-(4-Allyl-2-methoxyphenoxy)-N-(3-chlorophenyl)acetamide]?
inhibition at 6.25 µM (egg albumin): 5.49 ± 0.43%; inhibition at 12.5 µM (egg albumin): 9.47 ± 0.39%; inhibition at 25 µM (egg albumin): 15.7 ± 0.24%; inhibition at 50 µM (egg albumin): 22.35 ± 0.18%; inhibition at 100 µM (egg albumin): 38.61 ± 0.3%; inhibition at 200 µM (egg albumin): 48.21 ± 0.18%; inhibition at 400 µM (egg albumin): 56.62 ± 0.37%; IC50 (human PPARγ- LBD): 11.5 µM; Raw Data (human PPARγ- LBD; 0.0000512 µM): 2.087 RLU; Raw Data - Background (human PPARγ- LBD; 0.0000512 µM): 1.839 RLU; Raw Data (human PPARγ- LBD; 0.000256 µM): 1.860 RLU; Raw Data - Background (human PPARγ- LBD; 0.000256 µM): 1.610 RLU; Raw Data (human PPARγ- LBD; 0.00128 µM): 1.903 RLU; Raw Data - Background (human PPARγ- LBD; 0.00128 µM): 1.678 RLU; Raw Data (human PPARγ- LBD; 0.0064 µM): 1.927 RLU; Raw Data - Background (human PPARγ- LBD; 0.0064 µM): 1.692 RLU; Raw Data (human PPARγ- LBD; 0.032 µM): 1.988 RLU; Raw Data - Background (human PPARγ- LBD; 0.032 µM): 1.752 RLU; Raw Data (human PPARγ- LBD; 0.16 µM): 1.922 RLU; Raw Data - Background (human PPARγ- LBD; 0.16 µM): 1.688 RLU; Raw Data (human PPARγ- LBD; 0.8 µM): 1.820 RLU; Raw Data - Background (human PPARγ- LBD; 0.8 µM): 1.683 RLU; Raw Data (human PPARγ- LBD; 4 µM): 1.752 RLU; Raw Data - Background (human PPARγ- LBD; 4 µM): 1.522 RLU; Raw Data (human PPARγ- LBD; 20 µM): 1.018 RLU; Raw Data - Background (human PPARγ- LBD; 20 µM): 0.721 RLU; Raw Data (human PPARγ- LBD; 100 µM): 0.834 RLU; Raw Data - Background (human PPARγ- LBD; 100 µM): 0.586 RLU; HRBC membrane stabilization (percentage protection against HRBC lysis) ([1]; 6.25 µM): 12.36 ± 0.48%; HRBC membrane stabilization (percentage protection against HRBC lysis) ([1]; 12.5 µM): 19.68 ± 0.38%; HRBC membrane stabilization (percentage protection against HRBC lysis) ([1]; 25 µM): 34.50 ± 0.36%; HRBC membrane stabilization (percentage protection against HRBC lysis) ([1]; 50 µM): 42.00 ± 0.56%; HRBC membrane stabilization (percentage protection against HRBC lysis) ([1]; 100 µM): 51.04 ± 0.46%; HRBC membrane stabilization (percentage protection against HRBC lysis) ([1]; 200 µM): 66.05 ± 0.36%; HRBC membrane stabilization (percentage protection against HRBC lysis) ([1]; 400 µM): 75.09 ± 0.36%; IC50 [1]: 58.1 µM

Which results are given for C=CCc1ccc(OCC(=O)Nc2ccccc2Cl)c(OC)c1 [Compound 1f, 2-(4-Allyl-2-methoxyphenoxy)-N-(2-chlorophenyl)acetamide]?
inhibition at 6.25 µM (egg albumin): 7.74 ± 0.34%; inhibition at 12.5 µM (egg albumin): 13.6 ± 0.23%; inhibition at 25 µM (egg albumin): 24.4 ± 0.48%; inhibition at 50 µM (egg albumin): 31 ± 0.55%; inhibition at 100 µM (egg albumin): 43.08 ± 0.43%; inhibition at 200 µM (egg albumin): 50%; inhibition at 400 µM (egg albumin): 62.41 ± 0.42%; IC50 (human PPARγ- LBD): 5.15 µM; Raw Data (human PPARγ- LBD; 0.0000512 µM): 1.795 RLU; Raw Data - Background (human PPARγ- LBD; 0.0000512 µM): 2.02 RLU; Raw Data (human PPARγ- LBD; 0.000256 µM): 1.801 RLU; Raw Data - Background (human PPARγ- LBD; 0.000256 µM): 2.04 RLU; Raw Data (human PPARγ- LBD; 0.00128 µM): 1.764 RLU; Raw Data - Background (human PPARγ- LBD; 0.00128 µM): 2 RLU; Raw Data (human PPARγ- LBD; 0.0064 µM): 1.826 RLU; Raw Data - Background (human PPARγ- LBD; 0.0064 µM): 2.061 RLU; Raw Data (human PPARγ- LBD; 0.032 µM): 1.766 RLU; Raw Data - Background (human PPARγ- LBD; 0.032 µM): 1.99 RLU; Raw Data (human PPARγ- LBD; 0.16 µM): 1.711 RLU; Raw Data - Background (human PPARγ- LBD; 0.16 µM): 1.945 RLU; Raw Data (human PPARγ- LBD; 0.8 µM): 1.881 RLU; Raw Data - Background (human PPARγ- LBD; 0.8 µM): 2.056 RLU; Raw Data (human PPARγ- LBD; 4 µM): 1.247 RLU; Raw Data - Background (human PPARγ- LBD; 4 µM): 1.542 RLU; Raw Data (human PPARγ- LBD; 20 µM): 0.799 RLU; Raw Data - Background (human PPARγ- LBD; 20 µM): 0.862 RLU; Raw Data (human PPARγ- LBD; 100 µM): 0.7757 RLU; Raw Data - Background (human PPARγ- LBD; 100 µM): 0.9427 RLU; HRBC membrane stabilization (percentage protection against HRBC lysis) ([1]; 6.25 µM): 15.17 ± 0.64%; HRBC membrane stabilization (percentage protection against HRBC lysis) ([1]; 12.5 µM): 25.09 ± 0.66%; HRBC membrane stabilization (percentage protection against HRBC lysis) ([1]; 25 µM): 41.88 ± 0.55%; HRBC membrane stabilization (percentage protection against HRBC lysis) ([1]; 50 µM): 49.50 ± 0.46%; HRBC membrane stabilization (percentage protection against HRBC lysis) ([1]; 100 µM): 58.61 ± 0.38%; HRBC membrane stabilization (percentage protection against HRBC lysis) ([1]; 200 µM): 73.43 ± 0.36%; HRBC membrane stabilization (percentage protection against HRBC lysis) ([1]; 400 µM): 85.79 ± 0.18%; IC50 [1]: 55 µM
